What is called Ki is a dissociation constant, usually derived from enzyme kinetics or from competition with a known ligand.

These results are taken from patent publication US10941153B2, “Substituted phenethylamine derivatives” (REGENTS OF THE UNIVERSITY OF MINNESOTA, priority 2018, dated 2021).

For one test, the target named is T1, σ1 receptor (UniProt Q99720).
T1 construct: Ki, Sigma-1; σ1 potency and selectivity, in words; other: relative to compound 4e
The test is described as follows: PDSP binding affinity, sigma-1. Details: species or system human. The source says:
Assay data for compound 53558 against sigma-1 receptor is presented in FIG. 21 and Tables 10 and 11 below: […]

The target of another test is 5-HT2B receptor (Homo sapiens, UniProt P41595). The test can be described thus: PDSP GPCR binding affinity, 5-HT2B. An excerpt:
In particular, the Ki (nM) value is provided. […] FIGS. 14-15 are graphical views of Log P vs. Ki, 5-HT2B receptor and Log P vs. Ki, sigma-1 receptor, respectively, summarizing the data presented in Table 6, according to one or more embodiments of the present disclosure. Assay data for compound 53545 against 5-HT7A receptor is presented in FIG. 18 and Tables 8-9 provided below:
Assay data for compound 53529 against 5-HT2B receptor is presented in FIG. 22 and Tables 12-13 provided below: […]

The target of another test is 5-HT7 receptor (Homo sapiens, UniProt P34969). The test is described as follows: PDSP GPCR binding affinity, 5-HT7. The conditions noted are these: for 5-HT7 potency, in words: relative to compound 4i. The source says:
(§1) In particular, the Ki (nM) value is provided. […] FIGS. 14-15 are graphical views of Log P vs. Ki, 5-HT2B receptor and Log P vs. Ki, sigma-1 receptor, respectively, summarizing the data presented in Table 6, according to one or more embodiments of the present disclosure. Assay data for compound 53545 against 5-HT7A receptor is presented in FIG. 18 and Tables 8-9 provided below: […]

A further test deals with T2, 5-HT1A receptor (Homo sapiens, UniProt P08908).
T2 sequence (P08908 1-422): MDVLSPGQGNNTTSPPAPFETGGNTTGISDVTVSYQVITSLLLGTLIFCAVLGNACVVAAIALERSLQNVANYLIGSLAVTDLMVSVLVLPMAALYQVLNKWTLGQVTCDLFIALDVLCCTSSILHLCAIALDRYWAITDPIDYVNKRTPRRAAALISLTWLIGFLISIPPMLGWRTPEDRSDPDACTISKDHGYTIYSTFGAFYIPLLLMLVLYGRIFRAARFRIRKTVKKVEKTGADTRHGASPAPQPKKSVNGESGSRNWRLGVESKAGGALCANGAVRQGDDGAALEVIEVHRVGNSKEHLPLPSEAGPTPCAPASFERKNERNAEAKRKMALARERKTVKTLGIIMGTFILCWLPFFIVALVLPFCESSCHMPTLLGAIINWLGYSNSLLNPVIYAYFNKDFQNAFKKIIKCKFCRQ
The test can be described thus: PDSP GPCR binding affinity, 5-HT1A.
Description: as §1

In test [1] the test system is human GPCR (serotonin, adrenergic, dopamine, histamine, muscarinic, opioid, sigma and others). The test can be described thus: PDSP broad GPCR screen. The conditions noted are these: wider array of GCPR, Table 5.
Description: The G-Protein-coupled receptor (GPCR) binding affinity of the compounds of the present disclosure was assessed through the Psychoactive Drug Screening Program.
An initial screen of three primary amines was submitted. […] The molecules were screened across a wide range of human GPCR including serotonin (5-HT), α- and β-adrenergic (Alpha and Beta), dopamine (D), histamine (H), muscarinic (M), opioid (OR), sigma (σ), and others (Table 1).

Bounds are passed on as bounds.

Sequence of 5-HT7 receptor (P34969 1-445 isoform P34969-2): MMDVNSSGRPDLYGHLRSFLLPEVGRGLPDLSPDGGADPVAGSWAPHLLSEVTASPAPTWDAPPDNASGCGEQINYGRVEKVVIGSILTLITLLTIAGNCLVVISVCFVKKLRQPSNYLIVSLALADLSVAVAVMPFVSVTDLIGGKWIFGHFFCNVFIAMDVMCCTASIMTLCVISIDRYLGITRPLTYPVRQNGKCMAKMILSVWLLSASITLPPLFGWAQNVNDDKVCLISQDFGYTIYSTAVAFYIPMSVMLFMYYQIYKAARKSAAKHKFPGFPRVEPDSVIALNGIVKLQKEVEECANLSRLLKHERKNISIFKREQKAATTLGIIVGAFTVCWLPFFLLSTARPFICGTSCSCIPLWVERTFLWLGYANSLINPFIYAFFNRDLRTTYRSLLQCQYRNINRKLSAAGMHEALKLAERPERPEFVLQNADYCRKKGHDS
Sequence of 5-HT2B receptor (P41595 whole entry): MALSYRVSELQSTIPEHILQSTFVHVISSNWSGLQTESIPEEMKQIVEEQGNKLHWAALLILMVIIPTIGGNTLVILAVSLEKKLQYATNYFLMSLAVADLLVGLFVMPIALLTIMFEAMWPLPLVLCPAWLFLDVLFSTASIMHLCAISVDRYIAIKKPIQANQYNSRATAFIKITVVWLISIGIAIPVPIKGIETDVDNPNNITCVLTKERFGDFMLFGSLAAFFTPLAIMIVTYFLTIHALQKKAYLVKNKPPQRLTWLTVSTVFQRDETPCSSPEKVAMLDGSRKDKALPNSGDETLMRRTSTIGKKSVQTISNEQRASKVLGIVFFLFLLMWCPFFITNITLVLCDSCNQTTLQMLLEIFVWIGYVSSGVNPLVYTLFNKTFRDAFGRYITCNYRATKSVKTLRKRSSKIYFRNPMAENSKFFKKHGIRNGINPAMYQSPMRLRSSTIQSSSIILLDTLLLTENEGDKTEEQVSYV

As for `C[C@@]12COc3cc(OCc4ccccc4)ccc3[C@@H]1CCN2` [Compound 4c], on σ1 receptor, the “σ1 binding, in words” value is on record as “potent σ1 ligand”.
As to `C[C@@]12COc3cc(O)ccc3[C@@H]1CCN2` [Compound 4d], on σ1 receptor, the “σ1 binding, in words” value is on record as “detrimental to activity”.
With `Cc1cc(C)c2c(c1)OC[C@@]1(C)NCC[C@@H]21` [Compound 4f], the “5-HT2B binding, in words” value on 5-HT2B receptor was “enhanced 5-HT2B binding”.
Turning to `CC12CN(c3ccccc3)c3ccccc3C1CCN2` (stereo not shown) [Compound 4i], on 5-HT7 receptor, the Ki was 6.3 nM and the “selectivity for 5-HT7 vs next most sensitive receptor, σ1” value was about 75 fold. Besides, at 5-HT1A receptor, the Ki is over 10000 nM. In addition, the “activity across the additional GCPR investigated” value in test [1] is on record as “minimal activity”.
On to `CN1CC[C@H]2c3ccccc3N(c3ccccc3)C[C@]21C` [Compound 10c], for which the “5-HT7 potency, in words” value on 5-HT7 receptor is given as “further enhanced”.
Consider `CC(=O)N1CC[C@H]2c3ccccc3N(c3ccccc3)C[C@]21C` [Compound 11c], for which, at 5-HT7 receptor, the “5-HT7 potency, in words” value is “removed activity”.
Regarding SB 206553 [reference compound], on 5-HT2B receptor (5-HT2B receptor, competition binding curve, SB 206553 as reference, read-out: Ki (Table 12)), the Ki amounted to 9.79 nM.
